Bridge positions count the residues as written; N and C are the ends. Square brackets hold non-standard residues; d marks the D form. Peptide text beside a SMILES is read from it. R8 = C=CCCCCCC[C@@](C)(N)C(=O)O; S5 = C=CCCC[C@](C)(N)C(=O)O; Nle = CCCC[C@H](N)C(=O)O; Dap = NC[C@H](N)C(=O)O
Tested on: HRE-bla ME-180 cells
Experiment: Reporter gene assay (HRE-bla ME-180 HIF reporter, GeneBLAzer)
Assay type: cell-based, human
Conditions: for EC50: 24 hour normoxia
Description: The following reagents were used:
• DMEM+GutaMAX: (#10569044, Invitrogen) • Black clear bottom plates: (#3603, Costar) • HRE-bla-ME-180 cell line: (#K1644, Invitrogen) • Gene-Blazer reagent & protocol: (#K1096, Invitrogen) • Plate reader: Biotek Synergy 2 • Chetomin: (C9623, Sigma)
4 hours prior to experiment: HRE-bla ME-180 cells were seeded at a density of 20,000 cells/well in a volume of 180 μl in black clear bottom 96-well plates. 180 μl of assay medium was added to the cell-free control wells. Incubation was conducted at 37° C., 5% CO2 for 4 hours.
Diluted chetomin was used as a positive control. Chetomin was diluted in 100% DMSO to a 10 mM stock concentration. A 1 mM stock of chetomin was prepared in 100% DMSO. Then the 1 mM chetomin stock was serially diluted in 1:4 in 100% DMSO. Finally, 50, 12.5, 3.125, 0.78, 0.2, 0.05 μM stock of chetomin in 5% DMSO/water were prepared by adding 114 μL water+6 μL chetomin in DMSO.
Test peptides were diluted before use. The test peptides were diluted in 100% DMSO to a 10 mM stock concentration. Then each 10 mM peptide stock was diluted in 1:3 in 100% DMSO. Finally, 300, 100, 33.3, 11.1, 3.7, 1.2 μM stock of each peptide in 5% DMSO/water were prepared by adding 129.2 μL water+4 μL peptide in DMSO.
20 μl of peptide, chetomin dilution, or DMSO/water control were added to the appropriate wells of a plate to achieve 200 μL final volumes in 0.3% DMSO/media. The plate was first incubated for 18-20 hours in normoxia incubator (37° C. in humidified 5% CO2, 20% O2 atmosphere). Then the plate was transferred to hypoxia incubator for 24 hours (37° C. in humidified 5% CO2, 1% O2 atmosphere)
6× LiveBLAzer™-FRET B/G (CCF4-AM) Substrate Mixture was prepared according to CellSensor™ HRE-bla ME-180 Cell-based Assay Protocol (Invitrogen) and added into each well. Solution A (CCF4-AM) was reconstituted in DMSO to a working concentration of 1 mM, divided in aliquots, and stored at −20° C. The 6× LiveBLAzer-FRET B/G (CCF4-AM) Substrate mixture was prepared by mixing 6 μl of Solution A, 60 μl of Solution B, and 934 μl Solution C.
The plates were removed from incubator and equilibrated to RT for a few minutes. Then 20 μl of 6× Substrate mixture was added to each well. The plates were then incubated at room temperature for 3 hr in the dark and read at 409 Ex/460Em and 409Ex/530Em using the “GeneBlazer-Tungsten with export” program on the Synergy 2.
The average percentage of maximum inhibition was obtained by comparing the peptide treated cells (30 μM) to DMSO vehicle control treated cells. The results are shown in the columns “ME-180 HIF Reporter EC50 (μM) −24 hr normoxia” and “18 h Avg % max inhibition at top conc (HIF Rptr-24 hrsnormoxia) (μM)” of Table 6.

SMILES	18 h Avg % max inhibition at top conc (HIF Rptr-24 hrs normoxia) (μM)	EC50 [µM]
CCCC[C@H](NC(=O)[C@H](CC(C)C)NC(=O)[C@@H](NC(=O)[C@H](CCC(=O)O)NC(=O)[C@H](CCC(=O)O)NC(=O)[C@H](CC(=O)O)NC(=O)[C@@H](NC(=O)[C@H](CN)NC(C)=O)[C@@H](C)CC)C(C)C)C(=O)N[C@@]1(C)CCCC=CCCC[C@@](C)(C(=O)N[C@@H](CCCC)C(=O)N[C@@H](C)C(=O)N[C@@H](CC(C)C)C(=O)N[C@@H](CC(=O)O)C(=O)N[C@@H](CCCNC(=N)N)C(=O)N[C@H](C(N)=O)[C@@H](C)CC)NC(=O)[C@H]([C@@H](C)CC)NC(=O)[C@H](C(C)C)NC(=O)[C@H](CC(C)C)NC1=O [SP-61] (Ac-[Dap]IDEEVL[Nle][S5]LVI[S5][Nle]ALDRI-NH2; staple 9-13)	+ (<10: +)	> 30
CCCC[C@H](NC(=O)[C@H](CC(C)C)NC(=O)[C@@H](NC(=O)[C@H](CN)NC(=O)[C@H](CCC(=O)O)NC(=O)[C@H](CC(=O)O)NC(=O)[C@@H](NC(=O)[C@H](Cc1ccccc1)NC(C)=O)[C@@H](C)CC)C(C)C)C(=O)N[C@@]1(C)CCCC=CCCC[C@@](C)(C(=O)N[C@@H](CCCC)C(=O)N[C@@H](C)C(=O)N[C@@H](CC(C)C)C(=O)N[C@@H](CC(=O)O)C(=O)N[C@@H](CCCNC(=N)N)C(=O)N[C@H](C(N)=O)[C@@H](C)CC)NC(=O)[C@H]([C@@H](C)CC)NC(=O)[C@H](C(C)C)NC(=O)[C@H](CC(C)C)NC1=O [SP-63] (Ac-FIDE[Dap]VL[Nle][S5]LVI[S5][Nle]ALDRI-NH2; staple 9-13)	+++ (≤25 but <50: +++)	5 to 15
CCCC[C@H](NC(=O)[C@H](CC(C)C)NC(=O)[C@@H](NC(=O)[C@H](CCC(=O)O)NC(=O)[C@H](CCC(=O)O)NC(=O)[C@H](CC(=O)O)NC(=O)[C@@H](NC(=O)[C@H](Cc1ccccc1)NC(C)=O)[C@@H](C)CC)C(C)C)C(=O)N[C@@]1(C)CCCC=CCCC[C@@](C)(C(=O)N[C@@H](CCCC)C(=O)N[C@@H](C)C(=O)N[C@@H](CCC(=O)O)C(=O)N[C@@H](CC(=O)O)C(=O)N[C@@H](CCCNC(=N)N)C(=O)N[C@H](C(N)=O)[C@@H](C)CC)NC(=O)[C@H]([C@@H](C)CC)NC(=O)[C@H](C(C)C)NC(=O)[C@H](CC(C)C)NC1=O [SP-40] (Ac-FIDEEVL[Nle][S5]LVI[S5][Nle]AEDRI-NH2; staple 9-13)	+ (<10: +)	> 30
CCCC[C@H](NC(=O)[C@H](CC(C)C)NC(=O)[C@@H](NC(=O)[C@H](CCC(=O)O)NC(=O)[C@H](CCC(=O)O)NC(=O)[C@H](CC(=O)O)NC(=O)[C@@H](NC(=O)[C@H](Cc1ccccc1)NC(C)=O)[C@@H](C)CC)C(C)C)C(=O)N[C@@]1(C)CCCC=CCCC[C@@](C)(C(=O)N[C@@H](CCC(=O)O)C(=O)N[C@@H](C)C(=O)N[C@@H](CC(C)C)C(=O)N[C@@H](CC(=O)O)C(=O)N[C@@H](CCCNC(=N)N)C(=O)N[C@H](C(N)=O)[C@@H](C)CC)NC(=O)[C@H]([C@@H](C)CC)NC(=O)[C@H](C(C)C)NC(=O)[C@H](CC(C)C)NC1=O [SP-38] (Ac-FIDEEVL[Nle][S5]LVI[S5]EALDRI-NH2; staple 9-13)	++++ (≥50: ++++)	15 to 30
CCCC[C@H](NC(=O)[C@H](CC(C)C)NC(=O)[C@@H](NC(=O)[C@H](CCC(=O)O)NC(=O)[C@H](CCC(=O)O)NC(=O)[C@H](CC(=O)O)NC(=O)[C@@H](NC(=O)[C@H](Cc1ccccc1)NC(C)=O)[C@@H](C)CC)C(C)C)C(=O)N[C@@]1(C)CCCC=CCCC[C@@](C)(C(=O)N[C@@H](CCCC)C(=O)N[C@@H](C)C(=O)N[C@@H](CC(C)C)C(=O)N[C@@H](CC(=O)O)C(=O)N[C@@H](CO)C(=O)N[C@H](C(N)=O)[C@@H](C)CC)NC(=O)[C@H]([C@@H](C)CC)NC(=O)[C@H](C(C)C)NC(=O)[C@H](CC(C)C)NC1=O [SP-58] (Ac-FIDEEVL[Nle][S5]LVI[S5][Nle]ALDSI-NH2; staple 9-13)	+++ (≤25 but <50: +++)	> 30
CCCC[C@H](NC(=O)[C@H](CC(C)C)NC(=O)[C@@H](NC(=O)[C@H](CO)NC(=O)[C@H](CCC(=O)O)NC(=O)[C@H](CC(=O)O)NC(=O)[C@@H](NC(=O)[C@H](Cc1ccccc1)NC(C)=O)[C@@H](C)CC)C(C)C)C(=O)N[C@@]1(C)CCCC=CCCC[C@@](C)(C(=O)N[C@@H](CCCC)C(=O)N[C@@H](C)C(=O)N[C@@H](CC(C)C)C(=O)N[C@@H](CC(=O)O)C(=O)N[C@@H](CCCNC(=N)N)C(=O)N[C@H](C(N)=O)[C@@H](C)CC)NC(=O)[C@H]([C@@H](C)CC)NC(=O)[C@H](C(C)C)NC(=O)[C@H](CC(C)C)NC1=O [SP-47] (Ac-FIDESVL[Nle][S5]LVI[S5][Nle]ALDRI-NH2; staple 9-13)	++++ (≥50: ++++)	5 to 15
CCCC[C@H](NC(=O)[C@H](CC(C)C)NC(=O)[C@@H](NC(=O)[C@H](CCC(=O)O)NC(=O)[C@H](CCC(=O)O)NC(=O)[C@H](CC(=O)O)NC(=O)[C@@H](NC(=O)[C@H](Cc1ccccc1)NC(C)=O)[C@@H](C)CC)C(C)C)C(=O)N[C@@]1(C)CCCC=CCCC[C@@](C)(C(=O)N[C@@H](CCCC)C(=O)N[C@@H](C)C(=O)N[C@@H](CC(C)C)C(=O)N[C@@H](CC(=O)O)C(=O)N[C@@H](CCCNC(=N)N)C(=O)N[C@H](C(N)=O)[C@@H](C)CC)NC(=O)[C@H]([C@@H](C)CC)NC(=O)[C@H](CCC(=O)O)NC(=O)[C@H](CC(C)C)NC1=O [SP-36] (Ac-FIDEEVL[Nle][S5]LEI[S5][Nle]ALDRI-NH2; staple 9-13)	+ (<10: +)	> 30
CCCC[C@H](NC(=O)[C@H](CC(C)C)NC(=O)[C@@H](NC(=O)[C@H](CCC(=O)O)NC(=O)[C@H](CCC(=O)O)NC(=O)[C@H](CC(=O)O)NC(=O)[C@@H](NC(=O)[C@H](Cc1ccccc1)NC(C)=O)[C@@H](C)CC)C(C)C)C(=O)N[C@@]1(C)CCCC=CCCC[C@@](C)(C(=O)N[C@@H](CCCC)C(=O)N[C@@H](C)C(=O)N[C@@H](CC(C)C)C(=O)N[C@@H](CC(=O)O)C(=O)N[C@@H](CCCNC(=N)N)C(=O)N[C@H](C(N)=O)[C@@H](C)CC)NC(=O)[C@H]([C@@H](C)CC)NC(=O)[C@H](C(C)C)NC(=O)[C@H](CO)NC1=O [SP-51] (Ac-FIDEEVL[Nle][S5]SVI[S5][Nle]ALDRI-NH2; staple 9-13)	+++ (≤25 but <50: +++)	5 to 15
CC[C@H](C)[C@H](NC(=O)[C@H](Cc1ccccc1)NC(C)=O)C(=O)N[C@@H](CC(=O)O)C(=O)N[C@@H](CCC(=O)O)C(=O)N[C@@H](CCC(=O)O)C(=O)N[C@H](C(=O)N[C@]1(C)CCCCCCC=CCCC[C@@](C)(C(=O)NCC(=O)N[C@@H](CC(C)C)C(=O)N[C@@H](CC(=O)O)C(=O)N[C@@H](CCCNC(=N)N)C(=O)N[C@H](C(=O)N[C@@H](CCCCN)C(=O)N[C@@H](CCC(=O)O)C(=O)N[C@@H](CC(C)C)C(=O)N2CCC[C@H]2C(=O)N[C@@H](CCC(=O)O)C(=O)N[C@@H](CC(C)C)C(=O)N[C@@H](Cc2c[nH]c3ccccc23)C(=O)N[C@@H](CC(C)C)C(N)=O)[C@@H](C)CC)NC(=O)[C@H](CCC(=O)O)NC(=O)[C@H]([C@@H](C)CC)NC(=O)[C@H](C(C)C)NC(=O)[C@H](CC(C)C)NC(=O)[C@H](CO)NC(=O)[C@H](CCSC)NC1=O)C(C)C [SP-84] (Ac-FIDEEV[R8]MSLVIE[S5]GLDRIKELPELWL-NH2; staple 7-14)	+ (<10: +)	> 30
CCCC[C@H](NC(=O)[C@H](CC(C)C)NC(=O)[C@@H](NC(=O)[C@H](CCC(=O)O)NC(=O)[C@H](CCC(=O)O)NC(=O)[C@H](CC(=O)O)NC(=O)[C@H](CCC(=O)O)NC(=O)[C@H](Cc1ccccc1)NC(C)=O)C(C)C)C(=O)N[C@@]1(C)CCCC=CCCC[C@@](C)(C(=O)N[C@@H](CCCC)C(=O)N[C@@H](C)C(=O)N[C@@H](CC(C)C)C(=O)N[C@@H](CC(=O)O)C(=O)N[C@@H](CCCNC(=N)N)C(=O)N[C@H](C(N)=O)[C@@H](C)CC)NC(=O)[C@H]([C@@H](C)CC)NC(=O)[C@H](C(C)C)NC(=O)[C@H](CC(C)C)NC1=O [SP-31] (Ac-FEDEEVL[Nle][S5]LVI[S5][Nle]ALDRI-NH2; staple 9-13)	+ (<10: +)	> 30

From patent US20190225650A1, “PEPTIDOMIMETIC MACROCYCLES AND USE THEREOF IN REGULATING HIF1ALPHA” (AILERON THERAPEUTICS, INC., priority 2013, published 2019)
